Measurements reported in patent US11541029B2, “High penetration compositions and their applications” (Techfields Pharma Co., Ltd., priority 2008, dated 2023).

Assays:
[1] = test system: GK rats (SLAC/GK, type 2 diabetes); test: Anti-diabetes (type II) activity of HPCs of NSAIAs in GK rats; type: in vivo; conditions: 30 mg/kg transdermally once per day, no fasting
Protocol: (§1) A HPC in the present disclosure lowered blood glucose levels in rat models (SLAC/GK, type 2 diabetes, n=7). 30 mg/kg of 8% diethylaminoethyl acetylsalicylate.HCl salt (P-1, in 25% ethanol); 4-acetamidophenyl salicylyldimethylaminobutyrate.HCl (P-6, in 25% ethanol), diethylaminoethyl 5-(2,4-difluorophenyl)acetylsalicylate.5-(2,4-difluorophenyl)acetylsalicylic acid salt (P-8, in 25% ethanol), diethylaminoethyl salicylsalicylate.HCl salt (P-9, in 25% ethanol), diethylaminoethyl salicylate.AcOH(P-10, in 25% ethanol), diethylaminoethyl 5-acetamido-acetylsalicylate.HCl(P-58, in 25% ethanol), diethylaminoethyl acetylsalicylsalicylate. HCl salt (P-59, in 25% ethanol), diethylaminoethyl acetylsalicylsalicylsalicylate. HCl salt (P-60, in 25% ethanol) were administered transdermally to the backs (6 cm^2, fur was shaved) of GK rats (SLAC/GK, 14-16 weeks old) and normal SD rats (SLAC/SD, 14-16 weeks old) once per day (at 8 am) for 6 weeks.
(§2) The blood glucose levels were measured once every 3 days at 4:30 pm (no fasting) from the third week to the sixth week as shown in Table 10a and 10b. […] Moreover, the blood glucose levels of the rats stayed at normal level (6-9 mmol/L, no fasting) after the treatment was stopped for 40 days.

[2] = test system: normal SD rats (SLAC/SD); test: Blood glucose in normal SD rats treated with HPCs of NSAIAs; type: in vivo; conditions: 30 mg/kg transdermally once per day, no fasting
Protocol: as §1, §2

[3] = test system: SLAC/DB/DB obese mice; test: Blood glucose and blood lipid levels in DB/DB mice; type: in vivo; conditions: 30 mg/kg transdermally once per day
Protocol: HPCs in the present disclosure lowered blood glucose levels and blood lipid levels in mice models (SLAC/DB/DB, obese mice, n=7). 30 mg/kg of 8% diethylaminoethyl acetylsalicylate.HCl salt (P-1, in 25% ethanol); 4-acetamidophenyl salicylyldimethylaminobutyrate.HCl (P-6, in 25% ethanol), diethylaminoethyl 5-(2,4-difluorophenyl)acetylsalicylate.5-(2,4-difluorophenyl)acetylsalicylic acid salt (P-8, in 25% ethanol), diethylaminoethyl salicylsalicylate.HCl salt (P-9, in 25% ethanol), diethylaminoethyl salicylate.AcOH(P-10, in 25% ethanol), diethylaminoethyl 5-acetamido-acetylsalicylate.HCl(P-58, in 25% ethanol), diethylaminoethyl acetylsalicylsalicylate.HCl salt (P-59, in 25% ethanol), diethylaminoethyl acetylsalicylsalicylsalicylate.HCl salt (P-60, in 25% ethanol) were administered transdermally to the backs (4 cm^2,fur was shaved) of DB/DB mice(SLAC/DB/DB, 10-12 weeks old) once per day (at 8 am) for 5 weeks. The blood glucose levels were measured once per week and blood lipid levels were measured once every other week.

[4] = test system: SLAC:NOD-IDDM, type 1 diabetes; test: Anti-diabetes (type I) activity of HPCs of NSAIAs; type: in vivo, mice; conditions: for blood glucose, Baseline: equal to 20 mg/kg of NSAIAs transdermally twice per day for 7 weeks; for blood glucose, Average: fourth week to seventh week, no fasting, equal to 20 mg/kg of NSAIAs transdermally twice per day
Excerpt: 10% aqueous solution of diethylaminoethyl acetylsalicylate.acetylsalicylic acid salt (P-1, […]); 4-acetamidophenyl salicylyldimethylaminobutyrate. HCl (P-6), diethylaminoethyl 5-(2,4-difluorophenyl)acetylsalicylate.5-(2,4-difluorophenyl)acetylsalicylic acid salt (P-8), diethylaminoethyl salicylsalicylate.AcOH(P-9), diethylaminoethyl 5-acetamido-acetylsalicylate. HCl (P-58), diethylaminoethyl 2-(ρ-isobutylphenyl) propionate.citric acid (P-59), diethylaminoethyl acetylsalicylsalicylate. acetylsalicylsalicylsalicylic acid salt (P-60) (equal to of 20 mg/kg of NSAIAs) were administered transdermally to the shaved back (about 1.5 cm^2) of mice twice per day (at 8 am and 5 pm) for 7 weeks.
The blood glucose levels were measured once every 3 days at 4:30 pm (no fasting) from the fourth week to the seventh week as shown in Table 11.

Row | SMILES | blood glucose, Average (Week 2-5) [1] | blood glucose, Day 1 [1] | blood glucose, Average (Week 2-5) [2] | blood glucose, Day 1 [2] | Cholesterol (total), Day 1 [3] | Cholesterol (total), Week 5 [3] | Triglycerides, Day 1 [3] | Triglycerides, Week 5 [3] | blood glucose, Day 1 [3] | blood glucose, Week 5 [3] | blood glucose, Baseline [4] | blood glucose, Average [4]
1 | CCN(CC)CCOC(=O)c1cc(NC(C)=O)ccc1OC(C)=O.Cl [P-58, diethylaminoethyl 5-acetamido-acetylsalicylate.HCl] | 9.4 ± 3.0 mmol/L | 17.1 ± 2.8 mmol/L | 5.8 ± 1.1 mmol/L | 5.9 ± 1.2 mmol/L | 7.1 ± 0.3 mmol/L | 5.1 ± 0.6 mmol/L | 4.9 ± 0.4 mmol/L | 4.3 ± 0.5 mmol/L | 15.6 ± 2.9 mmol/L | 9.3 ± 2.1 mmol/L | 17.9 ± 3.2 mmol/L | 8.1 ± 1.9 mmol/L
2 | CC(=O)O.CCN(CC)CCOC(=O)c1ccccc1O [P-10, diethylaminoethyl salicylate.AcOH] | 9.1 ± 2.2 mmol/L | 16.7 ± 3.2 mmol/L | 5.7 ± 1.3 mmol/L | 5.8 ± 1.2 mmol/L | 6.8 ± 0.4 mmol/L | 4.7 ± 0.5 mmol/L | 4.8 ± 0.9 mmol/L | 2.3 ± 0.3 mmol/L | 15.1 ± 3.7 mmol/L | 9.2 ± 2.3 mmol/L | 18.8 ± 3.4 mmol/L | 8.6 ± 1.8 mmol/L
3 | CCN(CC)CCOC(=O)c1ccccc1OC(=O)c1ccccc1OC(=O)c1ccccc1OC(C)=O.Cl [P-60, diethylaminoethyl acetylsalicylsalicylsalicylate. HCl salt] | 9.3 ± 2.9 mmol/L | 15.9 ± 2.8 mmol/L | 5.7 ± 1.1 mmol/L | 5.6 ± 1.3 mmol/L | 7.0 ± 0.8 mmol/L | 5.0 ± 0.4 mmol/L | 4.3 ± 0.5 mmol/L | 4.3 ± 0.5 mmol/L | 14.8 ± 2.7 mmol/L | 9.0 ± 2.1 mmol/L | 17.5 ± 3.3 mmol/L | 8.8 ± 1.9 mmol/L
